The results in this text go back to US7998965B2, “Glutamate aggrecanase inhibitors” (Wyeth LLC, priority 2005, dated 2011).

The Ki is a measure of affinity in units of concentration, obtained from inhibition or displacement. What is called IC50 is the concentration that gives 50% inhibition. For orientation: EC50 means the concentration giving half of the maximal effect. As usually defined, the inhibition is the relative decrease from the control value, in per cent.

In brackets after ≈: the same amount, converted by molar mass.

For experiment [1], the system named is newly synthesized aggrecan in human OA articular cartilage. The experiment can be described thus: Cartilage aggrecan metabolism study in human OA cartilage explants. The experiment is classed as cell-based. The following applies: cartilage from 3 human OA donors, 35SO4 label. From the text:
(§1) Human OA Cartilage Explant Culture: Discarded tissues from consented knee replacement patients were obtained from New England Baptist Hospital (Brookline, Mass.) in sterile phosphate buffered saline (PBS) after about 2-4 hrs post surgery. Cartilage slices were harvested from the knee specimens and washed several times in PBS. These cartilage slices were cut into appropriate pieces (6-8 mm) and rinsed in PBS and then in media and further cultured for additional days as cartilage explants. The medium consisted of Dulbecco's Modified Eagle's medium (DMEM, JRH Biosciences, Lenexa, Kans.), 50 μg/ml ascorbic acid (Wako, Osaka, Japan), 10 mM HEPES, pH 7.0 (Mediatech, Herndon, Va.), 2 mM L-glutamine (Mediatech), 100 U/ml antibiotic-antimycotic solution (Mediatech).
Cartilage aggrecan metabolism study: Cartilage metabolism study was performed with test compound 8OO. Cartilage explants immediately after harvest were cultured in the presence or absence of test compound 8OO. On day 3, media was collected and replaced with media, test compound and labeled sulfate (^35SO4,5 mCi, Perkin Elmer, Boston, Mass.). On day 6, media was collected, explants washed and replaced with media and test compound 8OO. […] Labeled aggrecan molecules were counted using Opti-Fluor (Perkin Elmer) and a liquid scintillation-measuring instrument (Beckman Coulter, Fullerton, Calif.). […]

Experiment [2] deals with T1, purified recombinant human Aggrecanase-1 (rAgg1) (Homo sapiens, UniProt O75173).
T1 sequence (O75173 213-837): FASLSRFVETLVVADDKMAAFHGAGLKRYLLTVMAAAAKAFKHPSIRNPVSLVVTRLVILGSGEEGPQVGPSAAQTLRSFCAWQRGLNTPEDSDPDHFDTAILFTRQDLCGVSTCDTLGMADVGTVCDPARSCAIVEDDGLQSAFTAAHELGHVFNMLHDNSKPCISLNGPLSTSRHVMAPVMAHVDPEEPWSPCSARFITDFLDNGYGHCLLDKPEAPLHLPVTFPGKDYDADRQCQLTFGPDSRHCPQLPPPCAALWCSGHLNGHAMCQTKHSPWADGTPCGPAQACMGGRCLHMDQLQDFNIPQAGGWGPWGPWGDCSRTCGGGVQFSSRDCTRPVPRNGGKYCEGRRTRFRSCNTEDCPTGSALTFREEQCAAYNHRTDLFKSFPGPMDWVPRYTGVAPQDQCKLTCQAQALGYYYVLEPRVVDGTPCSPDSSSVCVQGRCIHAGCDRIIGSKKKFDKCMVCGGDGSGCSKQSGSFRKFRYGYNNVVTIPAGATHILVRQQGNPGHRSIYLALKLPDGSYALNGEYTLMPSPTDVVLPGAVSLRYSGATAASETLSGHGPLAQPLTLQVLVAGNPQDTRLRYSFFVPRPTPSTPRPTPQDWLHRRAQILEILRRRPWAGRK
As to the kind of experiment: In vitro fluorescence screen for Aggrecanase-1 inhibitors. The following applies: Table 1. The experiment is classed as biochemical.

The target in experiment [3] is T2, recombinant human catalytic domain of MMP-14 (Homo sapiens, UniProt P50281).
T2 construct: 177 amino acids corresponding to Tyr89-Gly265 of mature human enzyme; purchased Chemicon International, Inc. CC1041
The experiment can be described thus: In vitro fluorescence assay of MMP-14 activity. It counts as biochemical. The following applies: Table 1; unit inferred.

The test system of experiment [4] is Aggrecanase-mediated aggrecan cleavage in human OA cartilage explants. The experiment can be described thus: Human osteoarthritic cartilage explant efficacy study (BC3 western analysis). It counts as cell-based.
From the text: as §1
Test compounds: The test compounds are described in Examples 8OO, 8NNNNNNN, and 8WWWWWWW. Stock solutions of the compounds were prepared at 1 mg/ml in DMSO, aliquoted and stored at −20° C. Working solutions of the compounds were made in DMSO and added to the culture for efficacy studies.
Efficacy study: Cartilage explants were cultured for 2-3 days in DMEM medium in a 37° C. and 5% CO2 environment to equilibrate the tissue. Explants were weighed (˜250 mg) and placed in wells of a 24-well culture dish in 1 ml of medium and 3 replicates per treatment group. For the efficacy study, cartilage explants were cultured for 6 days in the presence or absence of various concentrations of the test compound. The media was replaced on day 3 and the experiment was terminated on day 6. Total aggrecan content of conditioned media was measured by a colorimetric assay with DMMB (Farndale, R W et al., Biochim Biophys Acta. 1986, 883, 173-177).
Western analysis: Aggrecan fragments in conditioned medium were analyzed by western analysis using neoepitope antibody, BC-3 designed to recognize the Aggrecanase-generated N-terminal interglobular neoepitope ^374ARGS. Equal cartilage weight equivalent conditioned media from each replicate well per treatment group was pooled and digested with Chondroitinase ABC (Sigma, St Louis, Mo.), Keratinase I (Seikagaku America, Falmouth, Mass.) and Keratinase II (Seikagaku America, Falmouth, Mass.) for 2 h at 37° C. Samples were concentrated by YM-10 centrifugal filter device (Millipore Corp., Bedford, Mass.), lyophilized and reconstituted with equal volume of water. Samples were separated under reducing conditions on 4-12% gradient Tris-glycine gels (Invitrogen, Carlsbad, Calif.). Proteins from the gels were transferred to nitrocellulose membranes. Immunoblots were probed using Mab BC-3 (Abcam, Cambridge, Mass.). Incubation with primary and alkaline-phosphatase-conjugated secondary goat anti-mouse IgG (Promega Corp., Madison, Wis.) was performed overnight at 4° C. and at room temperature for 1 h, respectively. The immunoblots were incubated with NBT/BCIP substrate (Promega Corp., Madison, Wis.) at room temperature to achieve optimum color development. The aggrecan fragments containing the ARGS neoepitope were quantitated by densitometry analysis and the percentage inhibition of aggrecan degradation by test compounds was determined.

`CC(C)(Cc1ccc(F)cc1)NC(=O)[C@H](CCC(=O)O)NC(=O)c1ccc(-c2ccccc2)cc1` [Example 8OO, N^2-(1,1′-biphenyl-4-ylcarbonyl)-N^1-[2-(4-fluorophenyl)-1,1-dimethylethyl]-L-α-glutamine]: in experiment [1], the “aggrecan released into the medium” value was “equivalent decrease” and the “newly synthesized aggrecan content of the cartilage matrix” value was “dose dependent increase”. In addition, in experiment [2] (enzyme not given, column follows Agg1 IC50, read-out: Ki), the inhibition constant Ki was 0.006 µM. The IC50 in experiment [2] (read-out: Agg1 IC50) was less than 0.03 µM. Also, the IC50 in experiment [3] is more than 200 µM. The EC50 in experiment [4] (144 h, human OA cartilage explants, 6 days, BC3 analysis, read-out: EC50 (inhibition of aggrecanase generated aggrecan fragments)) was approximately 0.15 mg/L (≈ 0.315 µM). For the same molecule, the inhibition at 0.02 µg/mL in experiment [4] (Homo sapiens, 0.02 ug/ml, average of 15 donors, read-out: % inhibition (BC3 analysis)) worked out at 8.52%. Besides, the inhibition at 0.04 µg/mL in experiment [4] (Homo sapiens, 0.04 ug/ml, average of 15 donors, read-out: % inhibition (BC3 analysis)) was found to be 26.2%. In experiment [4] (Homo sapiens, 0.08 ug/ml, average of 15 donors, read-out: % inhibition (BC3 analysis)), the inhibition at 0.08 µg/mL amounted to 42.9%. Further, the inhibition at 0.15 µg/mL in experiment [4] (Homo sapiens, 0.15 ug/ml, average of 15 donors, read-out: % inhibition (BC3 analysis)) was 49%. Besides, in experiment [4] (Homo sapiens, 0.3 ug/ml, average of 15 donors, read-out: % inhibition (BC3 analysis)), the inhibition at 0.3 µg/mL is 56.4%. Moreover, in experiment [4] (Homo sapiens, 0.6 ug/ml, average of 15 donors, read-out: % inhibition (BC3 analysis)), the inhibition at 0.6 µg/mL was found to be 73.9%. Also, the inhibition at 1.25 µg/mL in experiment [4] (Homo sapiens, 1.25 ug/ml, average of 15 donors, read-out: % inhibition (BC3 analysis)) was found to be 83.4%. Also, the inhibition at 2.5 µg/mL in experiment [4] (Homo sapiens, 2.5 ug/ml, average of 15 donors) worked out at 101%. Besides, in experiment [4] (Homo sapiens, 5 ug/ml, average of 15 donors), the inhibition at 5 µg/mL is 98.9%. For the same molecule, the inhibition at 10 µg/mL in experiment [4] (Homo sapiens, 10 ug/ml, average of 15 donors) is 102%.
